The numbers were not newly measured in US6045800A, “Composition for preventing or treating periodontal diseases comprising extract from Achyranthis radix or Ulmus cortex” (LG Chemical Ltd., priority 1997, dated 2000), which cites them from elsewhere.

The subject of this data set is periodontal diseases.

In the case of `CN(C)C1C(=O)C(C(N)=O)=C(O)C2(O)C(=O)C3=C(O)c4c(O)cccc4C(C)(O)C3CC12` (stereo not drawn) [tetracycline], the “clinical effect on the symptom of the disease” value (1000 mg/day for 5 to 7 days) is “relieved to a clinically normal state”. In addition, the “clinical effect of long term administration” value (daily dose of 1000 mg for 2 weeks, then 250 mg once daily for 48 weeks) is reported as “gingivitis has clinically decreased”. Further, where the note is “use of the antibiotic”, the side effects entry was “vomiting, a complaint for the ache of gastrointestinal tracts, diarrhea, dental coloring”.
